According to patent US6890520B2, “Thermally stable ferulic acid derivatives” (Wakayama Prefecture, priority 2003, dated 2005):

Key:
[1] = Thermal decomposition temperature by thermogravimetric-differential thermal analyzer TG/DTA 6200; assay type: physicochemical
Description: A thermal decomposition temperature of bis-4,4′-(2-ethoxycarbonyl-1-ethenyl)-2,2′-methoxyphenoxymethane prepared in Example 1 was determined by using a thermogravimetric-differential thermal simultaneous analyzer “TG/DTA 6200” (commercially available from Seiko Instruments Inc.).
A thermal decomposition temperature of bis-4,4′-(2-2-ethyl-1-hexyloxycarbonyl-1-ethenyl)-2,2′-methoxyphenoxymethane prepared in Example 9 was determined by using a thermogravimetric-differential thermal simultaneous analyzer “TG/DTA 6200” (commercially available from Seiko Instruments Inc.).
A thermal decomposition temperature of bis-4,4′-(2-dodecyloxycarbonyl-1-ethenyl)-2,2′-methoxyphenoxymethane prepared in Example 10 was determined by using a thermogravimetric-differential thermal simultaneous analyzer “TG/DTA 6200” (commercially available from Seiko Instruments Inc.).

[2] = related art statement; cited from earlier work

thermal decomposition point [1] [°C] | SMILES | decomposition temperature [2] [°C]
318 | CCCCCCCCCCCCOC(=O)C=Cc1ccc(OCOc2ccc(C=CC(=O)OCCCCCCCCCCCC)cc2OC)c(OC)c1 [Example 10, Bis-4,4′-(2-dodecyloxycarbonyl-1-ethenyl)-2,2′-methoxyphenoxymethane] | –
355 | CCCCC(CC)COC(=O)C=Cc1ccc(OCOc2ccc(C=CC(=O)OCC(CC)CCCC)cc2OC)c(OC)c1 (stereo not shown) [Example 9, Bis-4,4′-(2-2-ethyl-1-hexyloxycarbonyl-1-ethenyl)-2,2′-methoxyphenoxymethane] | –
– | COc1cc(/C=C/C(=O)O)ccc1O [ferulic acid] | 176

SMILES | thermal decomposition point [1] [°C] | decomposition temperature [2] [°C]
CCOC(=O)C=Cc1ccc(OCOc2ccc(C=CC(=O)OCC)cc2OC)c(OC)c1 [Example 1, Bis-4,4′-(2-ethoxycarbonyl-1-ethenyl)-2,2′-methoxyphenoxymethane] | 359 | –
